Data reported in ChEMBL document CHEMBL3046957, “Synthesis of new oxadiazole derivatives as anti-inflammatory, analgesic, and antimicrobial agents” (2013).

Tests used:
Assay type in all cases: functional
Rattus norvegicus [1] = assay: Anti-inflammatory activity in Wistar albino Rattus norvegicus (rat) assessed as inhibition of carrageenan-induced paw edema at 10 mg/kg, po administered 30 min prior to carrageenan challenge measured after 1.5 hr by plethysmometric analysis relative to untreated control
Escherichia coli [2] = assay: Antibacterial activity against Escherichia coli assessed as growth inhibition at 50 ug/mL after 24 to 48 hr by cup-plate method; conditions: read-out: DIZ
Rattus norvegicus [3] = assay: Anti-inflammatory activity in Wistar albino Rattus norvegicus (rat) assessed as inhibition of carrageenan-induced paw edema at 10 mg/kg, po administered 30 min prior to carrageenan challenge measured after 0.5 hr by plethysmometric analysis relative to untreated control
Mus musculus [4] = assay: Analgesic activity in Swiss albino Mus musculus (mouse) assessed as latency time of heat-induced paw licking/jumping behaviour at 10 mg/kg after 4 hr by Eddy's hot plate method (reference value: 4.57 +/- 0.11 secs)
Rattus norvegicus [5] = assay: Anti-inflammatory activity in Wistar albino Rattus norvegicus (rat) assessed as inhibition of carrageenan-induced paw edema at 10 mg/kg, po administered 30 min prior to carrageenan challenge measured after 1 hr by plethysmometric analysis relative to untreated control
Mus musculus [6] = assay: Analgesic activity in Swiss albino Mus musculus (mouse) assessed as latency time of heat-induced paw licking/jumping behaviour at 10 mg/kg after 1 hr by Eddy's hot plate method (reference value: 4.74 +/- 0.21 secs)
Pseudomonas aeruginosa [7] = assay: Antibacterial activity against Pseudomonas aeruginosa assessed as growth inhibition at 100 ug/mL after 24 to 48 hr by cup-plate method; conditions: read-out: DIZ
Bacillus subtilis [8] = assay: Antibacterial activity against Bacillus subtilis assessed as growth inhibition at 50 ug/mL after 24 to 48 hr by cup-plate method; conditions: read-out: DIZ
Candida albicans [9] = assay: Antifungal activity against Candida albicans assessed as growth inhibition at 50 ug/mL after 24 hr by cup-plate method; conditions: read-out: DIZ
Escherichia coli [10] = assay: Antibacterial activity against Escherichia coli assessed as growth inhibition at 100 ug/mL after 24 to 48 hr by cup-plate method; conditions: read-out: DIZ
Aspergillus niger [11] = assay: Antifungal activity against Aspergillus niger assessed as growth inhibition at 100 ug/mL after 24 hr by cup-plate method; conditions: read-out: DIZ
Mus musculus [12] = assay: Analgesic activity in Swiss albino Mus musculus (mouse) assessed as latency time of heat-induced paw licking/jumping behaviour at 10 mg/kg after 2 hr by Eddy's hot plate method (reference value: 4.86 +/- 0.18 secs)
Staphylococcus aureus [13] = assay: Antibacterial activity against Staphylococcus aureus assessed as growth inhibition at 50 ug/mL after 24 to 48 hr by cup-plate method; conditions: read-out: DIZ
Aspergillus niger [14] = assay: Antifungal activity against Aspergillus niger assessed as growth inhibition at 50 ug/mL after 24 hr by cup-plate method; conditions: read-out: DIZ
Staphylococcus aureus [15] = assay: Antibacterial activity against Staphylococcus aureus assessed as growth inhibition at 100 ug/mL after 24 to 48 hr by cup-plate method; conditions: read-out: DIZ
Pseudomonas aeruginosa [16] = assay: Antibacterial activity against Pseudomonas aeruginosa assessed as growth inhibition at 50 ug/mL after 24 to 48 hr by cup-plate method; conditions: read-out: DIZ
Bacillus subtilis [17] = assay: Antibacterial activity against Bacillus subtilis assessed as growth inhibition at 100 ug/mL after 24 to 48 hr by cup-plate method; conditions: read-out: DIZ
Rattus norvegicus [18] = assay: Anti-inflammatory activity in Wistar albino Rattus norvegicus (rat) assessed as inhibition of carrageenan-induced paw edema at 10 mg/kg, po administered 30 min prior to carrageenan challenge measured after 3 hr by plethysmometric analysis relative to untreated control
Mus musculus [19] = assay: Analgesic activity in Swiss albino Mus musculus (mouse) assessed as latency time of heat-induced paw licking/jumping behaviour at 10 mg/kg after 0.5 hr by Eddy's hot plate method (reference value: 4.17 +/- 0.04 secs)
Candida albicans [20] = assay: Antifungal activity against Candida albicans assessed as growth inhibition at 100 ug/mL after 24 hr by cup-plate method; conditions: read-out: DIZ
Rattus norvegicus [21] = assay: Anti-inflammatory activity in Wistar albino Rattus norvegicus (rat) assessed as inhibition of carrageenan-induced paw edema at 10 mg/kg, po administered 30 min prior to carrageenan challenge measured after 2 hr by plethysmometric analysis relative to untreated control

Compound | inhibition in vivo at 10 mg/kg (Rattus norvegicus [1]) | zone of inhibition at 50 µg/mL (Escherichia coli [2]) | inhibition in vivo at 10 mg/kg (Rattus norvegicus [3]) | Time (Mus musculus [4]) | inhibition in vivo at 10 mg/kg (Rattus norvegicus [5]) | Time (Mus musculus [6]) | zone of inhibition at 100 µg/mL (Pseudomonas aeruginosa [7]) | zone of inhibition at 50 µg/mL (Bacillus subtilis [8]) | zone of inhibition at 50 µg/mL (Candida albicans [9]) | zone of inhibition at 100 µg/mL (Escherichia coli [10]) | zone of inhibition at 100 µg/mL (Aspergillus niger [11]) | Time (Mus musculus [12]) | zone of inhibition at 50 µg/mL (Staphylococcus aureus [13]) | zone of inhibition at 50 µg/mL (Aspergillus niger [14]) | zone of inhibition at 100 µg/mL (Staphylococcus aureus [15]) | zone of inhibition at 50 µg/mL (Pseudomonas aeruginosa [16]) | zone of inhibition at 100 µg/mL (Bacillus subtilis [17]) | inhibition in vivo at 10 mg/kg (Rattus norvegicus [18]) | Time (Mus musculus [19]) | zone of inhibition at 100 µg/mL (Candida albicans [20]) | further results
COc1ccc(F)cc1-c1cccc(-c2nn(CCCCF)c(=O)o2)c1 | 67% | 17 mm | 36% | 7.04 s | 51% | 5.24 s | 21 mm | 20 mm | 8 mm | 20 mm | 10 mm | 7.88 s | 19 mm | 9 mm | 25 mm | 18 mm | 24 mm | 95% | 5.55 s | 11 mm | inhibition in vivo at 10 mg/kg (Rattus norvegicus [21]): 83%
COc1ccc(F)cc1-c1cccc(-c2nn(CCCN)c(=O)o2)c1 | 55% | 15 mm | 29% | 5.49 s | 43% | 4.62 s | 21 mm | 12 mm | 5 mm | 16 mm | 12 mm | 6.84 s | 12 mm | 10 mm | 17 mm | 17 mm | 19 mm | 77% | 4.93 s | 12 mm | inhibition in vivo at 10 mg/kg (Rattus norvegicus [21]): 66%
COc1ccc(F)cc1-c1cccc(-c2nn(CCCC#N)c(=O)o2)c1 | 59% | 11 mm | 29% | 7.08 s | 44% | 5.64 s | 14 mm | 13 mm | 10 mm | 16 mm | 14 mm | 7.11 s | 10 mm | 12 mm | 14 mm | 11 mm | 14 mm | 85% | 5.71 s | 16 mm | inhibition in vivo at 10 mg/kg (Rattus norvegicus [21]): 71%
COC1=CC(=O)C[C@@H](C)[C@]12Oc1c(Cl)c(OC)cc(OC)c1C2=O [GRISEOFULVIN] |  |  |  |  |  |  |  |  | 20 mm |  | 37 mm |  |  | 22 mm |  |  |  |  |  | 35 mm | 
COc1ccc(F)cc1-c1cccc(-c2nn(CCOC3CCCCO3)c(=O)o2)c1 (centres undefined) | 44% | 9 mm | 16% | 4.21 s | 32% | 4.21 s | 21 mm | 11 mm | 9 mm | 16 mm | 11 mm | 4.58 s | 9 mm | 8 mm | 14 mm | 18 mm | 15 mm | 65% | 4.81 s | 9 mm | inhibition in vivo at 10 mg/kg (Rattus norvegicus [21]): 56%
COc1ccc(F)cc1-c1cccc(-c2nn(CCOS(=O)(=O)c3ccc(F)cc3)c(=O)o2)c1 | 50% | 12 mm | 24% | 6.01 s | 40% | 5.01 s | 15 mm | 15 mm | 5 mm | 16 mm | 9 mm | 6.17 s | 15 mm | 5 mm | 21 mm | 10 mm | 20 mm | 67% | 4.91 s | 6 mm | inhibition in vivo at 10 mg/kg (Rattus norvegicus [21]): 63%
